{
  "source": "patent US20220008359A1",
  "about": "“COMBINATION ANTI-CANCER PRODUCTS AND METHODS” (priority 2020, published 2022)",
  "test_system": "ZR75-1 cells",
  "test": "Immuno-staining of protein expression and protein phosphorylation, ZR75-1 cells",
  "assay_type": "cell-based",
  "design": "ATM level / P-317 (ULK1) level / Beclin1 level / ATG5 level / HDAC8 level / BIM level: scale not given here",
  "settings": "ZR75, 3 h",
  "procedure": "ZR75-1 and MCF7 cells were treated with vehicle control, GZ17-6.02, Palbociclib or the drugs combined for 3 hours and for 6 hours. Cells were fixed in place and immuno-staining performed with in house validated antibodies to detect protein expression and protein phosphorylation.",
  "note": "Marks after values point to notes of the source that are not given here.",
  "data": [
    {"compound": "CC(=O)c1c(C)c2cnc(Nc3ccc(N4CCNCC4)cn3)nc2n(C2CCCC2)c1=O", "note": "[PALBO, Palbociclib]", "values": [
      {"measurement": "AKT level", "value": 100},
      {"measurement": "AMPKa level", "value": 100},
      {"measurement": "ATG5 level", "value": 107},
      {"measurement": "ATG13 level", "value": 101},
      {"measurement": "ATM level", "value": 99},
      {"measurement": "BAK level", "value": 107},
      {"measurement": "BAX level", "value": 106},
      {"measurement": "BCL-XL level", "value": 94},
      {"measurement": "BIM level", "value": 109},
      {"measurement": "Beclin1 level", "value": 112},
      {"measurement": "CD95 level", "value": 100},
      {"measurement": "CHOP level", "value": 107},
      {"measurement": "Cyclin D level", "value": 108},
      {"measurement": "Cyclin E level", "value": 103},
      {"measurement": "ER level", "value": 100},
      {"measurement": "ERBB1 level", "value": 99},
      {"measurement": "ERBB2 level", "value": 99},
      {"measurement": "ERBB3 level", "value": 100},
      {"measurement": "ERK1/2 level", "value": 100},
      {"measurement": "ERK2 level", "value": 100},
      {"measurement": "ERRB4 level", "value": 100},
      {"measurement": "FAS-L level", "value": 108},
      {"measurement": "GRP78 level", "value": 108},
      {"measurement": "HDAC1 level", "value": 101},
      {"measurement": "HDAC2 level", "value": 99},
      {"measurement": "HDAC3 level", "value": 96},
      {"measurement": "HDAC4 level", "value": 100},
      {"measurement": "HDAC5 level", "value": 98},
      {"measurement": "HDAC6 level", "value": 99},
      {"measurement": "HDAC7 level", "value": 101},
      {"measurement": "HDAC8 level", "value": 100},
      {"measurement": "HDAC9 level", "value": 101},
      {"measurement": "HDAC10 level", "value": 98},
      {"measurement": "HDAC11 level", "value": 96},
      {"measurement": "IDO1 level", "value": 96},
      {"measurement": "JAK2 level", "value": 100},
      {"measurement": "JNK1/2 level", "value": 100},
      {"measurement": "LATS1/2 level", "value": 98},
      {"measurement": "MCL1 level", "value": 96},
      {"measurement": "MHCA level", "value": 102},
      {"measurement": "NEDD4 level", "value": 100},
      {"measurement": "NFkB level", "value": 100},
      {"measurement": "ODC level", "value": 100},
      {"measurement": "P-89 (TAZ) level", "value": 101},
      {"measurement": "P-109 (YAP) level", "value": 101},
      {"measurement": "P-127 (YAP) level", "value": 100},
      {"measurement": "P-317 (ULK1) level", "value": 112},
      {"measurement": "P-397 (YAP) level", "value": 98},
      {"measurement": "P-757 (ULK1) level", "value": 96},
      {"measurement": "P-909 (LATS1/2) level", "value": 98},
      {"measurement": "P-1079 (LATS1/2) level", "value": 101},
      {"measurement": "P-AMPKa level", "value": "115#"},
      {"measurement": "P-ATG13 level", "value": "113#"},
      {"measurement": "P-ATM level", "value": 106},
      {"measurement": "P-ERBB1 level", "value": 101},
      {"measurement": "P-ERBB2 level", "value": 96},
      {"measurement": "P-ERBB3 level", "value": "115#"},
      {"measurement": "P-ERBB4 level", "value": 107},
      {"measurement": "P-ERK level", "value": 97},
      {"measurement": "P-JAK2 level", "value": 100},
      {"measurement": "P-JNK level", "value": 90},
      {"measurement": "P-KIT level", "value": 100},
      {"measurement": "P-MET level", "value": 101},
      {"measurement": "P-NFkB level", "value": 100},
      {"measurement": "P-PDGFRb level", "value": 100},
      {"measurement": "P-PERK level", "value": 111},
      {"measurement": "P-S2448 (mTOR) level", "value": 97},
      {"measurement": "P-S2481 (mTOR) level", "value": 96},
      {"measurement": "P-T308 (AKT) level", "value": 106},
      {"measurement": "P-Y694 (STAT5) level", "value": 100},
      {"measurement": "P-Y705 (STAT3) level", "value": 99},
      {"measurement": "P-eIF2a level", "value": 110},
      {"measurement": "P-p38 level", "value": 101},
      {"measurement": "P-p70 T389 level", "value": 100},
      {"measurement": "PD-L1 level", "value": 100},
      {"measurement": "PD-L2 level", "value": 100},
      {"measurement": "PDGFRb level", "value": 100},
      {"measurement": "PERK level", "value": 101},
      {"measurement": "PP1 level", "value": 99},
      {"measurement": "PTEN level", "value": 101},
      {"measurement": "STAT3 level", "value": 100},
      {"measurement": "STAT5 level", "value": 100},
      {"measurement": "TAZ level", "value": 100},
      {"measurement": "ULK1 level", "value": 100},
      {"measurement": "Y416 (c-SRC) level", "value": 101},
      {"measurement": "Y527 (c-SRC) level", "value": 99},
      {"measurement": "YAP level", "value": 98},
      {"measurement": "c-KIT level", "value": 100},
      {"measurement": "c-MET level", "value": 100},
      {"measurement": "c-SRC level", "value": 101},
      {"measurement": "eIF2a level", "value": 99},
      {"measurement": "mTOR level", "value": 101},
      {"measurement": "p38 level", "value": 100},
      {"measurement": "p70 S6K level", "value": 100},
      {"measurement": "P-ERBB3 level", "setting": "listed as Palbo", "value": 115}
    ]}
  ]
}
